Where two headings read alike, the source gives them in different places.
Experiments:
HCV genotype 1b replicon = experiment: HCV replicon assay, genotype 1b replicon EC50; format: cell-based, Hepatitis C virus; conditions: Hepatitis C virus, genotype 1b replicon, read-out: EC50 [gt-1b]
Method in brief: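 Replicon cells (Neo^r, some luciferase:Neo^r fusion); G418 removed at plating; compound dilution series, 24-48 h. Readout: RNA by 32P-probe hybridization/protection or TaqMan, normalized to cyclophilin A RNA, or luciferase. EC50 vs DMSO control, 4-parameter fit.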

[1] = target: HCV NS3/4A protease genotype 1b (Hepatitis C virus genotype 1b, UniProt P26663); experiment: HCV NS3/4A protease time-resolved fluorescence (TRF) assay, Ki against genotype 1b; format: biochemical; conditions: IC50 [gt-1b] (nM), NS3/4A genotype 1b, enzyme 0.2 nM
Method in brief: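 NS3/4A enzyme was preincubated 30 min with inhibitor in 50 mM HEPES pH 7.5, 150 mM NaCl, 15% glycerol, 0.15% Triton X-100, 10 mM DTT, 0.1% PEG 8000; 25 nM europium TRF peptide substrate added, 2.5 h at room temperature. Enzyme: 0.2 nM (1b), 0.4 nM (A156T), 0.025 nM (3a). Ki from IC50 via Cheng-Prusoff.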

Row | Structure (SMILES) | EC50 (HCV genotype 1b replicon) | IC50 [1] | EC50 (HCV genotype 1b replicon; K+ salt) | IC50 ([1]; K+ salt)
1 | Cc1nc2ccccc2c2c1O[C@]1(CC2)C[C@H]2C(=O)N[C@]3(C(=O)NS(=O)(=O)C4(C)CC4)C[C@H]3/C=C\CCCCC[C@H](NC(=O)OCCF)C(=O)N2C1 [Example 127, 2-fluoroethyl [(2R,6S,12Z,13aS,14aR,16aS)-5′-methyl-14a-{[(1-methylcyclopropyl)sulfonyl]carbamoyl}-5,16-dioxo-1,1′,2′,5,6,7,8,9,10,11,13a,14,14a,15,16,16a-hexadecahydrospiro[cyclopropa[e]pyrrolo[1,2-a][1,4]diazacyclopentadecine-2,3′-pyrano[2,3-c]quinolin]-6-yl]carbamate] | 0.394 nM | 0.031 nM |  | 
2 | COCCOC(=O)N[C@H]1CCCCC/C=C\[C@@H]2C[C@@]2(C(=O)NS(=O)(=O)C2(C)CC2)NC(=O)[C@@H]2C[C@]3(CCc4c(c(C)nc5ccccc45)O3)CN2C1=O [Example 128, 2-methoxyethyl [(2R,6S,12Z,13aS,14aR,16aS)-5′-methyl-14a-{[(1-methylcyclopropyl)sulfonyl]carbamoyl}-5,16-dioxo-1,1′,2′,5,6,7,8,9,10,11,13a,14,14a,15,16,16a-hexadecahydrospiro[cyclopropa[e]pyrrolo[1,2-a][1,4]diazacyclopentadecine-2,3′-pyrano[2,3-c]quinolin]-6-yl]carbamate] | 2.01 nM | 0.044 nM |  | 
3 | Cc1nc2ccccc2c2c1O[C@]1(CC2)C[C@H]2C(=O)N[C@]3(C(=O)NS(=O)(=O)C4(C)CC4)C[C@H]3/C=C\CCCCC[C@H](NC(=O)OCC(F)(F)F)C(=O)N2C1 [Example 129, 2,2,2-trifluoroethyl [(2R,6S,12Z,13aS,14aR,16aS)-5′-methyl-14a-{[(1-methylcyclopropyl)sulfonyl]carbamoyl}-5,16-dioxo-1,1′,2′,5,6,7,8,9,10,11,13a,14,14a,15,16,16a-hexadecahydrospiro[cyclopropa[e]pyrrolo[1,2-a][1,4]diazacyclopentadecine-2,3′-pyrano[2,3-c]quinolin]-6-yl]carbamate] | 2.11 nM | 0.011 nM |  | 
4 | Cc1nc2ccccc2c2c1O[C@]1(CC2)C[C@H]2C(=O)N[C@]3(C(=O)NS(=O)(=O)C4(C)CC4)C[C@H]3/C=C\CCCCC[C@H](NC(=O)OCC(C)(C)C)C(=O)N2C1 [Example 130, 2,2-dimethylpropyl [(2R,6S,12Z,13aS,14aR,16aS)-5′-methyl-14a-{[(1-methylcyclopropyl)sulfonyl]carbamoyl}-5,16-dioxo-1,1′,2′,5,6,7,8,9,10,11,13a,14,14a,15,16,16a-hexadecahydrospiro[cyclopropa[e]pyrrolo[1,2-a][1,4]diazacyclopentadecine-2,3′-pyrano[2,3-c]quinolin]-6-yl]carbamate] | 1.93 nM | 0.01 nM |  | 
5 | Cc1nc2ccccc2c2c1O[C@]1(CC2)C[C@H]2C(=O)N[C@]3(C(=O)NS(=O)(=O)C4(C)CC4)C[C@H]3/C=C\CCCCC[C@H](NC(=O)OC3(C4CC4)CC3)C(=O)N2C1 [Example 131, 1,1′-bi(cyclopropyl)-1-yl [(2R,6S,12Z,13aS,14aR,16aS)-5′-methyl-14a-{[(1-methylcyclopropyl)sulfonyl]carbamoyl}-5,16-dioxo-1,1′,2′,5,6,7,8,9,10,11,13a,14,14a,15,16,16a-hexadecahydrospiro[cyclopropa[e]pyrrolo[1,2-a][1,4]diazacyclopentadecine-2,3′-pyrano[2,3-c]quinolin]-6-yl]carbamate] | 1.28 nM | 0.003 nM |  | 
6 | COc1ccc2c3c(c(C4CC4)nc2c1)O[C@]1(CC3)C[C@H]2C(=O)N[C@]3(C(=O)NS(=O)(=O)C4(C)CC4)C[C@H]3/C=C\CCCCC[C@H](NC(=O)NC(C)(C)C)C(=O)N2C1 [Example 132, (2R,6S,12Z,13aS,14aR,16aS)-6-[(tert-butylcarbamoyl)amino]-5′-cyclopropyl-8′-methoxy-N-[(1-methylcyclopropyl)sulfonyl]-5,16-dioxo-1,1′,2′,6,7,8,9,10,11,13a,14,15,16,16a-tetradecahydrospiro[cyclopropa[e]pyrrolo[1,2-a][1,4]diazacyclopentadecine-2,3′-pyrano[2,3-c]quinoline]-14a(5H)-carboxamide] | 1.41 nM | 0.002 nM |  | 
7 | COc1ccc2c3c(c(C4CC4)nc2c1)O[C@]1(CC3)C[C@H]2C(=O)N[C@]3(C(=O)NS(=O)(=O)C4(C)CC4)C[C@H]3/C=C\CCCCC[C@H](NC(=O)NC3CCCC3)C(=O)N2C1 [Example 133, (2R,6S,12Z,13aS,14aR,16aS)-6-[(cyclopentylcarbamoyl)amino]-5′-cyclopropyl-8′-methoxy-N-[(1-methylcyclopropyl)sulfonyl]-5,16-dioxo-1,1′,2′,6,7,8,9,10,11,13a,14,15,16,16a-tetradecahydrospiro[cyclopropa[e]pyrrolo[1,2-a][1,4]diazacyclopentadecine-2,3′-pyrano[2,3-c]quinoline]-14a(5H)-carboxamide] | 17.4 nM | 0.007 nM |  | 
8 | COc1ccc2c3c(c(C4CC4)nc2c1)O[C@]1(CC3)C[C@H]2C(=O)N[C@]3(C(=O)NS(=O)(=O)C4(C)CC4)C[C@H]3/C=C\CCCCC[C@H](NC(=O)OC3CCCC3)C(=O)N2C1 [Example 134, cyclopentyl [(2R,6S,12Z,13aS,14aR,16aS)-5′-cyclopropyl-8′-methoxy-14a-{[(1-methylcyclopropyl)sulfonyl]carbamoyl}-5,16-dioxo-1,1′,2′,5,6,7,8,9,10,11,13a,14,14a,15,16,16a-hexadecahydrospiro[cyclopropa[e]pyrrolo[1,2-a][1,4]diazacyclopentadecine-2,3′-pyrano[2,3-c]quinolin]-6-yl]carbamate] |  |  | 2.84 nM | 0.014 nM
9 | COc1ccc2c3c(c(C4CC4)nc2c1)O[C@]1(CC3)C[C@H]2C(=O)N[C@]3(C(=O)NS(=O)(=O)C4(C)CC4)C[C@H]3/C=C\CCCCC[C@H](NC(=O)OC3(C)CC3)C(=O)N2C1 [Example 135, 1-methylcyclopropyl [(2R,6S,12Z,13aS,14aR,16aS)-5′-cyclopropyl-8′-methoxy-14a-{[(1-methylcyclopropyl)sulfonyl]carbamoyl}-5,16-dioxo-1,1′,2′,5,6,7,8,9,10,11,13a,14,14a,15,16,16a-hexadecahydrospiro[cyclopropa[e]pyrrolo[1,2-a][1,4]diazacyclopentadecine-2,3′-pyrano[2,3-c]quinolin]-6-yl]carbamate] |  |  | 2.82 nM | 0.037 nM
10 | COc1ccc2c3c(c(C4CC4)nc2c1)O[C@]1(CC3)C[C@H]2C(=O)N[C@]3(C(=O)NS(=O)(=O)C4(C)CC4)C[C@H]3/C=C\CCCCC[C@H](NC(=O)OCC(C)C)C(=O)N2C1 [Example 136, 2-methylpropyl [(2R,6S,12Z,13aS,14aR,16aS)-5′-cyclopropyl-8′-methoxy-14a-{[(1-methylcyclopropyl)sulfonyl]carbamoyl}-5,16-dioxo-1,1′,2′,5,6,7,8,9,10,11,13a,14,14a,15,16,16a-hexadecahydrospiro[cyclopropa[e]pyrrolo[1,2-a][1,4]diazacyclopentadecine-2,3′-pyrano[2,3-c]quinolin]-6-yl]carbamate] |  |  | 2.12 nM | 0.019 nM
11 | COc1ccc2c3c(c(C4CC4)nc2c1)O[C@]1(CC3)C[C@H]2C(=O)N[C@]3(C(=O)NS(=O)(=O)C4(C)CC4)C[C@H]3/C=C\CCCCC[C@H](NC(=O)OC(C)C)C(=O)N2C1 [Example 137, propan-2-yl [(2R,6S,12Z,13aS,14aR,16aS)-5′-cyclopropyl-8′-methoxy-14a-{[(1-methylcyclopropyl)sulfonyl]carbamoyl}-5,16-dioxo-1,1′,2′,5,6,7,8,9,10,11,13a,14,14a,15,16,16a-hexadecahydrospiro[cyclopropa[e]pyrrolo[1,2-a][1,4]diazacyclopentadecine-2,3′-pyrano[2,3-c]quinolin]-6-yl]carbamate] | 1.71 nM | 0.025 nM |  | 
12 | CCOC(=O)N[C@H]1CCCCC/C=C\[C@@H]2C[C@@]2(C(=O)NS(=O)(=O)C2(C)CC2)NC(=O)[C@@H]2C[C@]3(CCc4c(c(C5CC5)nc5cc(OC)ccc45)O3)CN2C1=O [Example 138, ethyl [(2R,6S,12Z,13aS,14aR,16aS)-5′-cyclopropyl-8′-methoxy-14a-{[(1-methylcyclopropyl)sulfonyl]carbamoyl}-5,16-dioxo-1,1′,2′,5,6,7,8,9,10,11,13a,14,14a,15,16,16a-hexadecahydrospiro[cyclopropa[e]pyrrolo[1,2-a][1,4]diazacyclopentadecine-2,3′-pyrano[2,3-c]quinolin]-6-yl]carbamate] | 2.51 nM | 0.043 nM |  | 
13 | COC(=O)N[C@H]1CCCCC/C=C\[C@@H]2C[C@@]2(C(=O)NS(=O)(=O)C2(C)CC2)NC(=O)[C@@H]2C[C@]3(CCc4c(c(C5CC5)nc5cc(OC)ccc45)O3)CN2C1=O [Example 139, methyl [(2R,6S,12Z,13aS,14aR,16aS)-5′-cyclopropyl-8′-methoxy-14a-{[(1-methylcyclopropyl)sulfonyl]carbamoyl}-5,16-dioxo-1,1′,2′,5,6,7,8,9,10,11,13a,14,14a,15,16,16a-hexadecahydrospiro[cyclopropa[e]pyrrolo[1,2-a][1,4]diazacyclopentadecine-2,3′-pyrano[2,3-c]quinolin]-6-yl]carbamate] | 8.09 nM | 0.127 nM |  | 

From patent US8987195B2 (priority 2012, dated 2015)
